Data set [1] relates to YML007w yeast. The experiment in a line: Growth (OD660) of yap1-deleted yeast under H2O2 oxidative stress with ascorbic acid in the medium. The conditions noted are these: 0.8 or 1.0 mM H2O2; ascorbic acid added at T=0 at 15 mg/L; minimal medium 2% glucose. The data set is classed as cell-based, S. cerevisiae. Here is the method: FIG. 3A. […] Ascorbic acid was added at T=0 at a final concentration of 15 mg/L. BY4742 (▴); YML007w (◯).
FIG. 3B. […] Ascorbic acid was added at T=0 at a final concentration of 15 mg/L. BY4742 (▴); YML007w (◯).

The test system of data set [2] is S. cerevisiae strain NRRL Y-30696. The experiment in a line: Growth and lactic acid production of lactic acid producing yeast with exogenous ascorbic acid. It is filed as cell-based. Particulars: minimal glucose medium, 2.78 g/L CaCO3, 0, 0.16, 0.3 or 0.6 g/L ascorbic acid. Here is the method:
S. cerevisiae strain NRRL Y-30696 was inoculated in minimal glucose medium and 2.78 g/L CaCO3 or minimal glucose medium with 2.78 g/L CaCO3 and 0.16, 0.3, or 0.6 g/L ascorbic acid. OD660 (open symbols) and lactic acid (closed symbols) were monitored with time. The pH dropped in each case to 2.5 at 67 hours.

Data set [3] concerns GRFc, BY4741, and CEN.PK 113-5D yeast strains. In words: Growth of wild type yeast strains in medium containing lactic acid at pH 3 with added ascorbic acid. The conditions noted are these: 2xYNB medium, lactic acid 40 g/l, pH3.
Description: Ascorbic acid was added to the medium at the concentrations shown.
Data set [4] deals with YML007w yeast.
Excerpt: Yeast strains used were S. cerevisiae GRF18U (Brambilla, L. et al., 1999, FEMS Microb. Lett. 171, 133-140), S. cerevisiae GRFc (Brambilla et al. 1999 FEMS Microb. Lett. 171: 133-140), S. cerevisiae BY4742 (MATα; his3; leu2, lys2; ura3, EuroScarf Accession No. Y10000), S. cerevisiae YML007w (BY4742; MATα; his3; leu2, lys2; ura; YML007w::KanMX4 (the yap1 deleted strain) EuroScarf Accession No. Y10569); CEN.PK 113-5D (MATα ura3-52; cir+) (see, for example, VanDijken et al. (2000) Enzyme Microb. Technol. 26, 706-714); and BY4741 (MATα; his3; leu2; met 15; ura3, Euroscarf Accession No. Y00000), or strains derived from them through transformation with the different developed plasmids. All strains were cultivated in shake flasks in minimal medium (0.67% w/v YNB (Difco Laboratories, Detroit, Mich. #919-15), 2% w/v glucose or mannose, with addition of the appropriate amino acids or adenine or uracil, respectively, to 50 μL-^1) and/or the appropriate antibiotic (G418 or hygromicin to 500 mg/l and 400 mg/l, respectively) under standard conditions (shaking at 30° C.). The initial optical density at 660 nm was about 0.05 for ascorbic acid determination, and 0.1 for the kinetics of the recovery from oxidative stress.
The yeast strains were grown on mineral medium (2% glucose, 0.67% YNB) starting from an OD^660 of 0.1. […]

Where two headings read alike, the source gives them in different places.

Take `O=C1O[C@H]([C@@H](O)CO)C(O)=C1O` [ascorbic acid, L-ascorbic acid]: in the data set with YML007w yeast [1], the “growth sensitivity of YML007w yeast to H2O2 (OD660)” value was “can be rescued”. Also, in data set [2], the lactic acid production entry is “equivalent at each level”. Also, the “growth as measured by OD660” value in data set [2] (pH dropped to 2.5 at 67 hours) is “increased with increasing ascorbic acid”. Besides, the “dose dependence of the effect of ascorbic acid on growth” value in data set [3] is reported as “dose dependent”. Also, in data set [3] (zero or increasing ascorbic acid), the “effect on growth inhibition by lactic acid (OD660)” value is reported as “negative effects of lactic acid on growth can be overcome”.
For the compound `OO` [hydrogen peroxide], the “growth of YML007w yeast host” value with YML007w yeast [4] (0.8 mM hydrogen peroxide in medium) is recorded as “strongly delayed”; in the data set with YML007w yeast [4] (1 mM hydrogen peroxide in medium) it was “completely impaired”.

For the origin of these results see patent US20070141687A1, “Increase in stress tolerance with ascorbic acid during fermentation” (priority 2005, published 2007).
